# Results taken from patent US20130065792A1, “INDUCIBLE EXPRESSION OF SGLT5, METHODS AND KITS USING THE SAME” (BOEHRINGER INGELHEIM INTERNATIONAL GMBH, priority 2011, published 2013).
# Where two headings read alike, the source gives them in different places.
# T1: SGLT5 (Homo sapiens, UniProt A0PJK1)
# T1 construct: expressed in transfected cells; host or cells: T-Rex 293 cells (Invitrogen), stably transfected with pT-Rex-Dest30-hSGLT5; expression induced with tetracycline; deposited clone DSM ACC3096
# T1 sequence (A0PJK1 1-596): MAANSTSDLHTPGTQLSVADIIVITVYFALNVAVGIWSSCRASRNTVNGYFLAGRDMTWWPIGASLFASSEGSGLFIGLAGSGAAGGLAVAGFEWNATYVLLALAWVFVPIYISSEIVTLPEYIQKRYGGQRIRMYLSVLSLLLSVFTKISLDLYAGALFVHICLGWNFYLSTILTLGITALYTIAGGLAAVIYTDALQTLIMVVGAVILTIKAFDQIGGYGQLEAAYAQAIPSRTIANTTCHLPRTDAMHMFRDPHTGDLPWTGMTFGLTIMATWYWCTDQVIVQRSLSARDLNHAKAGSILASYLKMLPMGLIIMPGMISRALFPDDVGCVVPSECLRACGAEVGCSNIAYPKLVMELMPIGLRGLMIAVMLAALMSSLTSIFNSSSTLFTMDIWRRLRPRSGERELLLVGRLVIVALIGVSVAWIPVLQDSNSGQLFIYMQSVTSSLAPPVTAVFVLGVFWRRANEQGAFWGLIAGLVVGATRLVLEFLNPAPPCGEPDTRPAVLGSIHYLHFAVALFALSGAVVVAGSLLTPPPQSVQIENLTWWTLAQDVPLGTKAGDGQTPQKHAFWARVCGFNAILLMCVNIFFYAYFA
# B1: SGLT5 (Homo sapiens) (protein)
# chain: T1 sequence (A0PJK1 1-596)
# notes: expressed in transfected cells; host or cells: T-Rex 293 cells (Invitrogen), stably transfected with pT-Rex-Dest30-hSGLT5; expression induced with tetracycline; deposited clone DSM ACC3096
# What was measured:
# SGLT5 [1] = target: T1, SGLT5; assay: [14C]-monosaccharide uptake inhibition assay, [14C]-mannose as substrate, stable cell lines overexpressing human SGLT-5; format: cell-based; details: for IC50 / pIC50 ± SEM for inhibition of hSGLT-5: [14C]-mannose as substrate
# Procedure: [^14C]-monosaccharide uptake inhibition experiments: Stable cell lines overexpressing human SGLT-5 were used for the sodium-dependent monosaccharide transport inhibition assay. […] The uptake reaction was started by the addition of 0.6 μCi [^14C]-labelled monosaccharide i.e. [^14C]-labeled alpha-methyl glucopyranoside (AMG), glucose, fructose, mannose or myo-inositol, in 0.1 mM AMG (or the respective non-radioactive monosaccharide). After incubation for 60 minutes at 37° C., the cells were washed three times with 300 μl PBS (Cambrex, Verviers, Belgium) and then lysed in 0.1 N NaOH with intermittent shaking for 5 minutes. The lysate was mixed with 200 μl MicroScint 40 and shaken for 15 minutes and counted for radioactivity in the TopCount NXT (Canberra Packard, Schwadorf, Austria). The cells were pre-incubated in pre-treatment buffer (uptake buffer containing choline chloride instead of sodium chloride) for 25 minutes prior to addition of uptake buffer. A dose-response curve was fitted to an empirical four-parameter model using XL Fit (IDBS, Guildford, UK) to determine the inhibitor concentration at half-maximal response (IC50). Human SGLT-5 was identified to be a mannose transporter and the inhibition of hSGLT-5 was assessed by a newly established [^14C]-mannose uptake assay.
# SGLT5 [2] = target: T1, SGLT5; assay: Km-determination for mannose, fructose and AMG uptake by T-Rex 293-hSGLT5 cells; format: cell-based; details: for Km: specific (sodium dependent) uptake of [14C]-sugar, 4 h, T-Rex 293-hSGLT5 cells, three assays in parallel, read-out: Affinity for SGLT5 (Km)
# Procedure: (§1) [^14C]-monosaccharide uptake inhibition experiments: Stable cell lines overexpressing human SGLT-5 were used for the sodium-dependent monosaccharide transport inhibition assay. Cells were pre-incubated in 200 μl uptake buffer (10 mM HEPES, 137 mM NaCl, 5.4 mM KCl, 2.8 mM CaCl2, 1.2 mM MgCl2, 50 μg/ml Gentamycin, 0.1% BSA) for 25 minutes at 37° C. 10 μM Cytochalasin B and test compound was added at different concentrations 15 minutes before the initiation of the uptake experiment.
# (§2) The uptake reaction was started by the addition of 0.6 μCi [^14C]-labelled monosaccharide i.e. [^14C]-labeled alpha-methyl glucopyranoside (AMG), glucose, fructose, mannose or myo-inositol, in 0.1 mM AMG (or the respective non-radioactive monosaccharide).
# (§3) After incubation for 60 minutes at 37° C., the cells were washed three times with 300 μl PBS (Cambrex, Verviers, Belgium) and then lysed in 0.1 N NaOH with intermittent shaking for 5 minutes. The lysate was mixed with 200 μl MicroScint 40 and shaken for 15 minutes and counted for radioactivity in the TopCount NXT (Canberra Packard, Schwadorf, Austria). The cells were pre-incubated in pre-treatment buffer (uptake buffer containing choline chloride instead of sodium chloride) for 25 minutes prior to addition of uptake buffer.
# Km-determination for mannose, fructose and Alpha-Methylglucose (AMG) uptake by SGLT5: The uptake of Mannose, Fructose and AMG was assayed as described under “[^14C]-monosaccharide uptake inhibition experiments” in the absence (nonspecific uptake) or presence of sodium (Total uptake) in the buffer at different concentrations of the respective monosaccharide for 4 h. From the difference of Total uptake and Nonspecific uptake the Specific uptake was calculated and the Km was determined using the Program Graph Pad Prism (LaJolla, Calif., USA).
# (§4) The measured affinity curves measured in three assays run in parallel are shown in FIG. 4A (for mannose), 4B (for fructose) and 4C (for AMG).
# SGLT5 [3] = target: T1, SGLT5; assay: Time dependent specific uptake of [14C]-monosaccharides by T-Rex 293-hSGLT5 cells (FIG. 3); format: cell-based; details: 1 mM monosaccharide, 5-60 min, tetracycline induced T-Rex 293-hSGLT5 cells
# Procedure: [^14C]-saccharide uptake experiments: 30000 cells per well were seeded in white poly-D-lysine-coated 96-well plates and incubated over night. The expression of hSGLT5 was induced 24 h before the start of uptake experiments by the addition of 1 μg/ml tetracycline to the cells. For the assay, cells were washed twice with 250 μl pre-treatment buffer [140 mM cholinchloride in basal buffer (10 mM HEPES; 5.4 mM KCl; 2.8 mM CaCl2*2 H2O; 1.2 mM MgSO4*7 H2O; 0.1% BSA, pH 7.4) and incubated in 200 μl pre-treatment buffer for 25 min at 37° C. Pre-treatment buffer was removed and 200 μl uptake buffer was added to the cells (140 mM NaCl in basal buffer containing 1 mM cold monosaccharide [either glucose, fructose, mannose, galactose or alphamethyl glucopyranoside (AMG), respectively]+0,6 μCi [^14C]-labelled monosaccharide [either glucose, fructose, mannose, galactose or alpha-methyl glucopyranoside (AMG), respectively] (Hartmann Analytics, Mannheim, Germany) and 10 μM Cytochalasin B. After incubation for 5, 10, 30 and 60 minutes at 37° C., the cells were washed three times with 300 μl PBS (Cambrex, Verviers, Belgium) and then lysed in 0.1 N NaOH with intermittent shaking for 5 min. The lysate was mixed with 200 μl MikroScint 40 Scintillator, shaken for 15 min and counted for radioactivity in the TopCount NXT (Canberra Packard, Schwadorf, Austria). Specific sugar uptake was determined by subtracting non-specific uptake of each sugar (in the presence of choline chloride) from total uptake of the same sugar (in the presence of sodium chloride).
# Furthermore, a protocol was established to measure the specific uptake of monosaccharides e.g. mannose, fructose, glucose, AMG and galactose by hSGLT5, It could be shown that the transporter takes up mannose and fructose with high affinity and hardly transports glucose, AMG and galactose (FIG. 3). […] Specific uptake was calculated by subtracting the respective monosaccharide uptake in the presence of choline chloride from the total uptake of the same monosaccharide in the presence of sodium chloride.
# [4] = substrate: O=C(CO)[C@@H](O)[C@H](O)[C@H](O)CO; assay: Km-determination for mannose, fructose and AMG uptake by T-Rex 293-hSGLT5 cells; format: cell-based, human; details: other: specific (sodium dependent) uptake of [14C]-sugar, 4 h, three assays in parallel, 37.0 °C
# Procedure: as §1, §2
# as §3, with “The cells were pre-incubated in pre-treatment buffer (uptake buffer containing choline chloride instead of sodium chloride) for 25 minutes prior to addition of uptake buffer.” left out
# as §4
# [5] = 60 minutes at 37° C., at least three independent experiments, read-out: Mean IC50 for inhibition of hSGLT-5
molecule,measurement,setting,value
O=C(CCc1ccc(O)cc1)c1c(O)cc(O)cc1O[C@@H]1O[C@H](CO)[C@@H](O)[C@H](O)[C@H]1O [Phlorizin],IC50,SGLT5 [1]; [5],1500 nM
CCOc1ccc(Cc2cc([C@@H]3O[C@H](CO)[C@@H](O)[C@H](O)[C@H]3O)ccc2Cl)cc1 [Dapagliflozin],IC50,SGLT5 [1]; [5],820 nM
Cc1cc(O)c(C(=O)CCc2ccc3occc3c2)c(O[C@@H]2O[C@H](CO)[C@@H](O)[C@H](O)[C@H]2O)c1 [Compound T1095A],IC50,SGLT5 [1]; [5],1100 nM
same,pIC50 ± SEM for inhibition of hSGLT-5,SGLT5 [1]; given with negative sign,5.97 ± 0.19
OC[C@H]1O[C@@H](c2ccc(F)c(Cc3cc4ccccc4s3)c2)[C@H](O)[C@@H](O)[C@@H]1O [ASP-1941],IC50,SGLT5 [1]; [5],740 nM
"COC1OC(CO)C(O)C(O)C1O (stereo not drawn) [AMG, alpha-methyl glucopyranoside]",Km fold higher than the Km for fructose,SGLT5 [2]; ratio of Km values,at least 5 fold
same,Km fold higher than the Km for mannose,SGLT5 [2]; ratio of Km values,at least 33 fold
same,Km,SGLT5 [2],10.1 mM
same,specific uptake / affinity for hSGLT5 (in words),SGLT5 [3],very low affinity
O=C(CO)[C@@H](O)[C@H](O)[C@H](O)CO [Fructose],Km fold higher than the Km for mannose,SGLT5 [2]; ratio of Km values,6.67 fold
same,Km,SGLT5 [2],≤ 2 mM
same,specific uptake / affinity for hSGLT5 (in words),SGLT5 [3],high affinity
"OC[C@H]1O[C@@H](c2ccc(Cl)c(Cc3ccc(O[C@H]4CCOC4)cc3)c2)[C@H](O)[C@@H](O)[C@@H]1O [Compound A, D-glucitol, 1,5-anhydro-1-C-[4-chloro-3-[[4-[[(3S)-tetrahydro-3-furanyl]oxy]phenyl]methyl]phenyl]-, (1S)-]",IC50,SGLT5 [1]; [5],1100 nM
same,IC50,"SGLT5 [1]; given with negative sign, read-out: pIC50 ± SEM for inhibition of hSGLT-5 (converted)",1050 nM
Cc1c(Cc2ccc(OC(C)C)cc2)c(O[C@@H]2O[C@H](CO)[C@@H](O)[C@H](O)[C@H]2O)nn1C(C)C [Remogliflozin],selectivity over SGLT-2,SGLT5 [1]; SGLT-5 versus SGLT-2,< 15 fold
same,IC50,SGLT5 [1]; [5],190 nM
Cc1ccc([C@@H]2O[C@H](CO)[C@@H](O)[C@H](O)[C@H]2O)cc1Cc1ccc(-c2ccc(F)cc2)s1 [Canagliflozin],IC50,SGLT5 [1]; [5],1700 nM
same,pIC50 ± SEM for inhibition of hSGLT-5,SGLT5 [1]; given with negative sign,5.77 ± 0.12
COc1ccc(Cc2ccccc2O[C@@H]2O[C@H](CO)[C@@H](O)[C@H](O)[C@H]2O)cc1 [Sergliflozin],IC50,SGLT5 [1]; [5],1100 nM
same,pIC50 ± SEM for inhibition of hSGLT-5,SGLT5 [1]; given with negative sign,5.95
B1,Km,[4],2.0 mM
